Experimental data reported in PubChem BioAssay AID256 (DTP/NCI, 2004).
Values joined by “and” are separate entries in the source; they are usually repeats but may differ in a detail not shown here. Identical values can stand only once. Inconclusive results and toxic doses are left out. The calls were made as follows: active = survival T/C of 150% or more; inactive = T/C below 125% in these data.

Test system: CD2F1 mice, L1210 leukemia ip, survival T/C
Test: NCI In Vivo Anticancer Drug Screen. Data for tumor model L1210 Leukemia (intraperitoneal) in CD2F1 (CDF1) mice
Conditions: higher = longer survival
Method in brief: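 Read-out first: treated-group measurement over vehicle-control measurement, expressed as a ratio. Animals bore a transplanted tumor line and were dosed with compound or vehicle.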

Measured: T/C

NCCCN=c1ccc2c3c1c(O)c1c(O)ccc(=O)c1c3[nH]n2CCNCCO
active: endpoint: median survival time, dose: 0.28 mg/kg/injection, schedule: Q03HX008 (ip), vehicle: saline 162 % of control | endpoint: median survival time, dose: 0.38 mg/kg/injection, schedule: Q03HX024 (ip), vehicle: saline 174 % of control | endpoint: median survival time, dose: 0.45 mg/kg/injection, schedule: Q01DX005 (ip), vehicle: saline 174 % of control | endpoint: median survival time, dose: 0.5 mg/kg/injection, schedule: Q01DX009 (ip), vehicle: saline 241 % of control | endpoint: median survival time, dose: 0.56 mg/kg/injection, schedule: Q03HX008 (ip), vehicle: saline 174 % of control | endpoint: median survival time, dose: 0.75 mg/kg/injection, schedule: Q03HX024 (ip), vehicle: saline 329 % of control | endpoint: median survival time, dose: 0.75 mg/kg/injection, schedule: Q04DX003 (ip), vehicle: saline 231 % of control | endpoint: median survival time, dose: 0.9 mg/kg/injection, schedule: Q01DX005 (ip), vehicle: saline 198 % of control | endpoint: median survival time, dose: 1.0 mg/kg/injection, schedule: Q01DX009 (ip), vehicle: saline 217 % of control | endpoint: median survival time, dose: 1.13 mg/kg/injection, schedule: Q03HX008 (ip), vehicle: saline 731 % of control | endpoint: median survival time, dose: 1.5 mg/kg/injection, schedule: Q03HX024 (ip), vehicle: saline 731 % of control | endpoint: median survival time, dose: 1.5 mg/kg/injection, schedule: Q04DX003 (ip), vehicle: saline 186 % of control | endpoint: median survival time, dose: 1.8 mg/kg/injection, schedule: Q01DX005 (ip), vehicle: saline 219 % of control | endpoint: median survival time, dose: 2.0 mg/kg/injection, schedule: Q01DX009 (ip), vehicle: saline 186 % of control | endpoint: median survival time, dose: 2.0 mg/kg/injection, schedule: Q01DX009 (ip), vehicle: water 170 % of control and 365 % of control | endpoint: median survival time, dose: 2.25 mg/kg/injection, schedule: Q03HX008 (ip), vehicle: saline 280 % of control | endpoint: median survival time, dose: 3.0 mg/kg/injection, schedule: Q03HX024 (ip), vehicle: saline 731 % of control | endpoint: median survival time, dose: 3.0 mg/kg/injection, schedule: Q04DX003 (ip), vehicle: saline 207 % of control | endpoint: median survival time, dose: 3.6 mg/kg/injection, schedule: Q01DX005 (ip), vehicle: saline 426 % of control | endpoint: median survival time, dose: 3.6 mg/kg/injection, schedule: Q01DX005 (iv), vehicle: saline 158 % of control | endpoint: median survival time, dose: 4.0 mg/kg/injection, schedule: Q01DX009 (ip), vehicle: saline 219 % of control | endpoint: median survival time, dose: 4.0 mg/kg/injection, schedule: Q01DX009 (ip), vehicle: water 183 % of control and 192 % of control and 292 % of control | endpoint: median survival time, dose: 4.5 mg/kg/injection, schedule: Q01DX001 (ip), vehicle: saline 207 % of control | endpoint: median survival time, dose: 4.5 mg/kg/injection, schedule: Q01DX001 (ip), vehicle: water 164 % of control | endpoint: median survival time, dose: 4.5 mg/kg/injection, schedule: Q03HX008 (ip), vehicle: saline 731 % of control | endpoint: median survival time, dose: 6.0 mg/kg/injection, schedule: Q03HX024 (ip), vehicle: saline 731 % of control | endpoint: median survival time, dose: 6.0 mg/kg/injection, schedule: Q04DX003 (ip), vehicle: saline 243 % of control | endpoint: median survival time, dose: 7.2 mg/kg/injection, schedule: Q01DX005 (ip), vehicle: saline 731 % of control | endpoint: median survival time, dose: 7.2 mg/kg/injection, schedule: Q01DX005 (iv), vehicle: saline 187 % of control | endpoint: median survival time, dose: 8.0 mg/kg/injection, schedule: Q01DX009 (ip), vehicle: saline 329 % of control | endpoint: median survival time, dose: 8.0 mg/kg/injection, schedule: Q01DX009 (ip), vehicle: water 213 % of control and 268 % of control and 333 % of control | endpoint: median survival time, dose: 9.0 mg/kg/injection, schedule: Q01DX001 (ip), vehicle: saline 231 % of control | endpoint: median survival time, dose: 9.0 mg/kg/injection, schedule: Q01DX001 (ip), vehicle: water 158 % of control and 183 % of control | endpoint: median survival time, dose: 9.0 mg/kg/injection, schedule: Q03HX008 (ip), vehicle: saline 731 % of control | endpoint: median survival time, dose: 12.0 mg/kg/injection, schedule: Q04DX003 (ip), vehicle: saline 731 % of control | endpoint: median survival time, dose: 14.4 mg/kg/injection, schedule: Q01DX005 (ip), vehicle: saline 731 % of control | endpoint: median survival time, dose: 16.0 mg/kg/injection, schedule: Q01DX009 (ip), vehicle: saline 280 % of control | endpoint: median survival time, dose: 16.0 mg/kg/injection, schedule: Q01DX009 (ip), vehicle: water 196 % of control and 337 % of control and 365 % of control | endpoint: median survival time, dose: 18.0 mg/kg/injection, schedule: Q01DX001 (ip), vehicle: saline 268 % of control | endpoint: median survival time, dose: 18.0 mg/kg/injection, schedule: Q01DX001 (ip), vehicle: water 216 % of control and 666 % of control | endpoint: median survival time, dose: 18.0 mg/kg/injection, schedule: Q01DX001 (iv), vehicle: saline 162 % of control | endpoint: median survival time, dose: 18.0 mg/kg/injection, schedule: Q03HX008 (ip), vehicle: saline 365 % of control | endpoint: median survival time, dose: 24.0 mg/kg/injection, schedule: Q04DX003 (ip), vehicle: saline 731 % of control | endpoint: median survival time, dose: 28.8 mg/kg/injection, schedule: Q01DX005 (ip), vehicle: saline 731 % of control | endpoint: median survival time, dose: 36.0 mg/kg/injection, schedule: Q01DX001 (ip), vehicle: saline 731 % of control | endpoint: median survival time, dose: 36.0 mg/kg/injection, schedule: Q01DX001 (ip), vehicle: water 208 % of control and 466 % of control | endpoint: median survival time, dose: 36.0 mg/kg/injection, schedule: Q01DX001 (iv), vehicle: saline 192 % of control | endpoint: median survival time, dose: 36.0 mg/kg/injection, schedule: Q01DX001 (iv), vehicle: water 152 % of control | endpoint: median survival time, dose: 48.0 mg/kg/injection, schedule: Q04DX003 (ip), vehicle: saline 731 % of control | endpoint: median survival time, dose: 72.0 mg/kg/injection, schedule: Q01DX001 (ip), vehicle: saline 731 % of control | endpoint: median survival time, dose: 72.0 mg/kg/injection, schedule: Q01DX001 (ip), vehicle: water 666 % of control | endpoint: median survival time, dose: 96.0 mg/kg/injection, schedule: Q04DX003 (ip), vehicle: saline 219 % of control | endpoint: median survival time, dose: 144.0 mg/kg/injection, schedule: Q01DX001 (ip), vehicle: saline 731 % of control | endpoint: median survival time, dose: 144.0 mg/kg/injection, schedule: Q01DX001 (ip), vehicle: water 666 % of control
inactive: endpoint: median survival time, dose: 0.9 mg/kg/injection, schedule: Q01DX005 (iv), vehicle: saline 114 % of control | endpoint: median survival time, dose: 2.2 mg/kg/injection, schedule: Q01DX001 (iv), vehicle: water 103 % of control and 111 % of control | endpoint: median survival time, dose: 2.25 mg/kg/injection, schedule: Q01DX001 (iv), vehicle: saline 117 % of control | endpoint: median survival time, dose: 4.5 mg/kg/injection, schedule: Q01DX001 (iv), vehicle: saline 123 % of control | endpoint: median survival time, dose: 4.5 mg/kg/injection, schedule: Q01DX001 (iv), vehicle: water 108 % of control and 112 % of control | endpoint: median survival time, dose: 8.0 mg/kg/injection, schedule: Q01DX009 (oral), vehicle: saline 104 % of control | endpoint: median survival time, dose: 12.0 mg/kg/injection, schedule: Q03HX024 (ip), vehicle: saline 107 % of control | endpoint: median survival time, dose: 16.0 mg/kg/injection, schedule: Q01DX009 (oral), vehicle: saline 101 % of control | endpoint: median survival time, dose: 28.8 mg/kg/injection, schedule: Q01DX005 (iv), vehicle: saline 104 % of control | endpoint: median survival time, dose: 32.0 mg/kg/injection, schedule: Q01DX009 (ip), vehicle: saline 113 % of control | endpoint: median survival time, dose: 32.0 mg/kg/injection, schedule: Q01DX009 (ip), vehicle: water 114 % of control and 119 % of control and 88 % of control | endpoint: median survival time, dose: 32.0 mg/kg/injection, schedule: Q01DX009 (oral), vehicle: saline 107 % of control | endpoint: median survival time, dose: 64.0 mg/kg/injection, schedule: Q01DX009 (ip), vehicle: saline 90 % of control | endpoint: median survival time, dose: 64.0 mg/kg/injection, schedule: Q01DX009 (oral), vehicle: saline 101 % of control | endpoint: median survival time, dose: 128.0 mg/kg/injection, schedule: Q01DX009 (oral), vehicle: saline 102 % of control

CCCCCCCC(=O)N1C(=O)CCC1C(=O)O (stereo not drawn)
inactive: endpoint: mean survival time, dose: 100.0 mg/kg/injection, schedule: Q01DX001 (ip), vehicle: Klucel (hydroxypropylcellulose) (HPC) 100 % of control | endpoint: mean survival time, dose: 200.0 mg/kg/injection, schedule: Q01DX001 (ip), vehicle: Klucel (hydroxypropylcellulose) (HPC) 100 % of control | endpoint: mean survival time, dose: 400.0 mg/kg/injection, schedule: Q01DX001 (ip), vehicle: Klucel (hydroxypropylcellulose) (HPC) 104 % of control

COc1cc(C2c3cc4c(cc3C(OC3CCCCO3)C3COC(=O)C23)OCO4)cc(OC)c1OC (stereo not drawn)
inactive: endpoint: median survival time, dose: 1.56 mg/kg/injection, schedule: Q01DX009 (ip), vehicle: Klucel (hydroxypropylcellulose) (HPC) 109 % of control | endpoint: median survival time, dose: 3.12 mg/kg/injection, schedule: Q01DX009 (ip), vehicle: Klucel (hydroxypropylcellulose) (HPC) 120 % of control | endpoint: median survival time, dose: 3.13 mg/kg/injection, schedule: Q01DX009 (ip), vehicle: Klucel (hydroxypropylcellulose) (HPC) 114 % of control | endpoint: median survival time, dose: 6.25 mg/kg/injection, schedule: Q01DX009 (ip), vehicle: Klucel (hydroxypropylcellulose) (HPC) 120 % of control | endpoint: median survival time, dose: 12.5 mg/kg/injection, schedule: Q01DX009 (ip), vehicle: Klucel (hydroxypropylcellulose) (HPC) 101 % of control

O=C(O)/C=C/C(=O)Nc1cc2c(cc1Br)-c1ccccc1C2O (stereo not drawn)
inactive: endpoint: mean survival time, dose: 100.0 mg/kg/injection, schedule: Q04DX003 (ip), vehicle: saline with Tween-80 100 % of control | endpoint: mean survival time, dose: 200.0 mg/kg/injection, schedule: Q04DX003 (ip), vehicle: saline with Tween-80 102 % of control | endpoint: mean survival time, dose: 400.0 mg/kg/injection, schedule: Q04DX003 (ip), vehicle: saline with Tween-80 94 % of control

CC(=O)CCS(=O)(=O)O
inactive: endpoint: mean survival time, dose: 100.0 mg/kg/injection, schedule: Q01DX001 (ip), vehicle: saline with Tween-80 92 % of control | endpoint: mean survival time, dose: 200.0 mg/kg/injection, schedule: Q01DX001 (ip), vehicle: saline with Tween-80 95 % of control | endpoint: mean survival time, dose: 400.0 mg/kg/injection, schedule: Q01DX001 (ip), vehicle: saline with Tween-80 88 % of control
